According to patent publication US8580814B2, “Methods of using (+)-1,4-dihydro-7-[(3S,4S)-3-methoxy-4-(methylamino)-1-pyrrolidinyl]-4- oxo-1-(2-thiazolyl)-1,8-naphthyridine-3-carboxylic acid for treatment of cancer” (priority 2006, dated 2013):
Marks after values point to notes of the source that are not given here.

Columns and labels:
HCT-116 = assay: Timing of apoptosis (caspase-3 activation); type: cell-based; conditions: Cell Line HCT-116; dosed at 30 fold above the EC50 for cytotoxicity
[1] = system: HCT-116 cells treated with 2 mM caffeine; assay: Timing of apoptosis (caspase-3 activation); type: cell-based; conditions: Cell Line Caffeine (HCT-116, 2 mM caffeine); dosed at 30 fold above the EC50 for cytotoxicity
[2] = system: CCRF-CEM acute lymphoblastic leukemia tumor; assay: CCRF-CEM xenograft model; type: in vivo, nude mice; conditions: q7d X3, IV, 25 mg/kg
Experimental: CCRF-CEM acute lymphoblastic leukemia tumor lobes of 2-3 mm square were transplanted subcutaneously into nude mice. Tumors were allowed to grow to approximately 8-20 mm in diameter. […] Acceptable toxicity was defined as a mean group weight loss of 30% or less and not more than one toxic death among 6 treated animals. Anti-tumor activities of the drugs were assessed 20 or 21 days after the start of administration. Table 14 provides data for tumor inhibition (TI) and survival rate in the CCRF-CEM and LM3-Jck xenograft models.

clinical = conditions: human, in vivo; for AUC(0-inf) / half-life: both sexes
Experimental: SNS-595 was administered to patients with advanced or refractory acute leukemias as a slow IV push. Diagnoses included AML (19 patients) and ALL (2 patients). All patients had disease refractory to or relapsed from prior therapy (median 3 prior regimens (range 1-6)).
(§1) A total of 21 patients (9 female and 12 male; median age=64 yrs, range 21-80) were treated in five cohorts using two schedules. In the first schedule (A), a weekly dose of SNS-595 was administered for three weeks followed by 7 days off (qwk×3). In the second schedule (B), a dose of SNS-595 was administered twice a week for two weeks (biwk×2). The cycle duration, including days off, was 28 days for both schedules. […] Additional cycles were permitted if patients achieved stable disease or better. The starting dose was 18 mg/m^2 on schedule A and 9 mg/m^2 on schedule B, and dosage was escalated by cohort. Cohorts of 3-6 patients were accrued to doses using a modified Fibonacci sequence.
Pharmacokinetic analyses for SNS-595 were performed on plasma samples collected during cycle 1.
Plasma SNS-595 concentrations were determined using a validated LC-MS/MS assay. Plasma exposures at the first two dose levels for each schedule increased linearly, resulting in AUCs of 4.3-17.8 ughr/mL for 9-27 mg/m^2 doses. […] Six patients distributed across all dosing groups shown in Table 15 experienced greater than 50% reductions in peripheral blasts following cycle 1.

[3] = system: advanced or refractory acute leukemias; assay: Peripheral blasts in patients with advanced or refractory acute leukemias; type: in vivo, human; conditions: six patients distributed across all dosing groups of Table 15, following cycle 1
Experimental: as §1, with “SNS-595 was administered to patients with advanced or refractory acute leukemias as a slow IV push. Diagnoses included AML (19 patients) and ALL (2 patients). All patients had disease refractory to or relapsed from prior therapy (median 3 prior regimens (range 1-6)). A total” for “A total”

[4] = Solubility in acidic compositions; type: physicochemical; conditions: Acidic compositions (<pH 4)
Experimental: An illustrative example of a suitable composition comprises: 10 mg SNS-595 per mL of aqueous solution of 4.5% sorbitol that is adjusted to pH 2.5 with methanesulfonic acid. One protocol for making such a solution includes the following for making a 100 mg/10 mL presentation: 100 mg of SNS-595 and 450 mg D-sorbitol are added to distilled water; the volume is brought up to a volume of 10 mL; and the pH of the resulting solution is adjusted to 2.5 with methanesulfonic acid. The resulting composition is also suitable for lyophilization. The lyophilized form is then reconstituted with sterile water to the appropriate concentration prior to use.

What does the source list for `CN[C@H]1CN(c2ccc3c(=O)c(C(=O)O)cn(-c4nccs4)c3n2)C[C@@H]1OC` [SNS-595, (+)-1,4-dihydro-7-[(3S,4S)-3-methoxy-4-(methylamino)-1-pyrrolidinyl]-4-oxo-1-(2-thiazolyl)-1,8-naphthyridine-3-carboxylic acid]?
Timing of apoptosis: fraction of cell cycle to achieve 50% maximal caspase-3 activation (HCT-116): 0.4; Timing of apoptosis: fraction of cell cycle to achieve 50% maximal caspase-3 activation [1]: 0.25; IR (%) (tumor inhibition rate) [2]: 98.1* %; AUC(0-inf) (clinical; 9 mg/m2): 4300 ± 1300 ng·h/mL; AUC(0-inf) (clinical; 13.5 mg/m2): 5900 ± 2900 ng·h/mL; half-life (clinical; 13.5 mg/m2): 21 ± 7 h; AUC(0-inf) (clinical; 18 mg/m2): 8000 ± 1400 ng·h/mL; AUC(0-inf) (clinical; 27 mg/m2): 17800 ± 5000 ng·h/mL; half-life (clinical; 27 mg/m2): 22 ± 10 h; terminal half-lives, averaged (clinical; both): 23 h; T ½ (clinical; both, 9 mg/m2): 24 ± 5 h; Vssobs (clinical; both, 9 mg/m2): 65 ± 2 L/m^2; Vssobs (clinical; both, 13.5 mg/m2): 61 ± 6 L/m^2; T ½ (clinical; both, 18 mg/m2): 24 ± 4 h; Vssobs (clinical; both, 18 mg/m2): 72 ± 21 L/m^2; Vssobs (clinical; both, 27 mg/m2): 47 ± 21 L/m^2; CL, averaged (clinical): ~2 L/hr/m^2; Vss, averaged (clinical): 58 L/m^2; reductions in peripheral blasts [3]: greater than 50%; solubility [4]: increased solubility
